This note sets out measurements from patent US11129829B2, “Methods for modulating splicing” (Skyhawk Therapeutics, Inc., priority 2019, dated 2021).

Read-outs that look alike come from different tables or passages of the source.

One experiment has as its system Target 2. Briefly: qPCR assay, Target 2 splicing potency (poison exon 12c inclusion). As to conditions: for IC50: WT transcript; for EC50: poison exon E12c inclusion. Type of experiment: cell-based. Here is the method:
(§1) A-673 or SK-N-MC cells were treated with different concentrations of SMSM compounds or DMSO for 24 hours. After the first 16 hours, cells were treated with 100 ug/ml of cycloheximide (CHX) for 8 hours to inhibit protein translation and nonsense-mediated decay (NMD). Cells were lysed with RNA lysis buffer and RNAs were purified using standard methods. After cDNA synthesis, samples were analyzed by qPCR using target transcript specific Taqman primers/probes (FIGS. 7, 19, 20, and 29). Absolute copy numbers were determined using standard curves from G-block DNA fragments (FIGS. 8, 9, and 21). Relative gene expression was determined by comparing the gene expression in the presence of an SMSM and DMSO (FIGS. 10-16 and 22-28).
(Quantitative PCR measures a nucleic acid by following its amplification.)

Another experiment relates to Target 1. Briefly: qPCR assay, Target 1 splicing potency (poison exons 7b and 7c inclusion). Type of experiment: cell-based. As to conditions: for IC50: WT transcript. Here is the method: as §1
Where [1] appears, read: poison exon E7b inclusion, read-out: Target 1 Splicing Potency E7b EC50.
Setting [2] is: poison exon E7c inclusion, read-out: Target 1 Splicing Potency E7c EC50.

By IC50 is commonly meant the concentration at which inhibition is half-maximal. The low end stands for inhibition by little substance, the high end for a need for much substance. Broadly, the EC50 is the concentration that produces a half-maximal response.

On to `CNC(=O)/C=C/c1cc(O)c(-c2ccc(N(C)[C@@H]3C[C@H]4CCC[C@@H](C3)N4)nn2)cc1F` [SMSM 70808, (2E)-3-{4-[6-({9-azabicyclo[3.3.1]nonan-3-yl}(methyl)amino)pyridazin-3-yl]-2-fluoro-5-hydroxyphenyl}-N-methylprop-2-enamide], for which the half-inhibitory concentration (IC50) with Target 2 is 149 nM; in the experiment on Target 1, 104 nM. Besides, the EC50 amounted to 606 nM in the experiment on Target 2, 47.5 nM in the experiment with Target 1 (setting [1]) and 348 nM in the experiment on Target 1 (setting [2]).

In the case of `CNC(=O)c1ccc2cc(-c3ccc(N(C)[C@H]4C[C@]5(C)CCC[C@](C)(C4)N5)nn3)c(O)cc2n1` [SMSM 70824, 7-hydroxy-N-methyl-6-(6-{methyl[(1R,3S,5S)-1,5-dimethyl-9-azabicyclo[3.3.1]nonan-3-yl]amino}pyridazin-3-yl)quinoline-2-carboxamide], the IC50 stood at 54 nM with Target 2 and 27.6 nM in the experiment with Target 1. In addition, the EC50 stood at 46.1 nM in the experiment on Target 2, 9.3 nM with Target 1 (setting [1]) and 60.2 nM in the experiment with Target 1 (setting [2]).

For `CNC(=O)/C=C/c1cc(O)c(-c2ccc(N(C3CC3)[C@H]3C[C@]4(C)CC[C@](C)(C3)N4)nn2)cc1F` [SMSM 70823, (E)-3-(4-(6-(cyclopropyl((1R,3S,5S)-1,5-dimethyl-8-azabicyclo[3.2.1]octan-3-yl)amino)pyridazin-3-yl)-2-fluoro-5-hydroxyphenyl)-N-methylacrylamide], the IC50 was 463 nM in the experiment with Target 2 and 328 nM with Target 1. Moreover, the EC50 amounted to 344 nM with Target 2, 170 nM in the experiment on Target 1 (setting [1]) and 898 nM with Target 1 (setting [2]).

For the compound `CN(c1ccc(-c2cc(F)c(-c3cn[nH]c3)cc2O)nn1)[C@@H]1C[C@H]2CCC[C@@H](C1)N2` [SMSM 70807, 4-fluoro-2-(6-{methyl[(1R,3S,5S)-9-azabicyclo[3.3.1]nonan-3-yl]amino}pyridazin-3-yl)-5-(1H-pyrazol-4-yl)phenol], the IC50 with Target 2 was 50.8 nM; in the experiment on Target 1 it was 46 nM. Moreover, the EC50 in the experiment on Target 2 came out at 540 nM; in the experiment with Target 1 (setting [1]), 168 nM; in the experiment with Target 1 (setting [2]) it was 162 nM.

On to `CN(c1ccc(-c2ccc(-c3cnn(CF)c3)cc2O)nn1)[C@H]1C[C@]2(C)CC[C@](C)(C1)N2` [SMSM 70810, 2-(6-{[(1R,3S,5S)-1,5-dimethyl-8-azabicyclo[3.2.1]octan-3-yl](methyl)amino}pyridazin-3-yl)-5-[1-(fluoromethyl)-1H-pyrazol-4-yl]phenol], for which the results for the half-inhibitory concentration (IC50) in the experiment with Target 2 and in the experiment on Target 1 were 220 nM and 236 nM, respectively. Further, the EC50 in the experiment with Target 2 was determined as 418 nM; in the experiment with Target 1 (setting [1]), 180 nM; in the experiment on Target 1 (setting [2]) it was 1050 nM.

Consider `COc1cc(-c2ccc(-c3ccc(N(C)[C@H]4C[C@]5(C)CC[C@](C)(C4)N5)nn3)c(O)c2)ncn1` [SMSM 70817, 2-(6-{[(1R,3S,5S)-1,5-dimethyl-8-azabicyclo[3.2.1]octan-3-yl](methyl)amino}pyridazin-3-yl)-5-(6-methoxypyrimidin-4-yl)phenol], for which the IC50 in the experiment on Target 2 amounted to 930 nM; in the experiment with Target 1 it was 707 nM. For the same compound, the values for the EC50 in the experiment on Target 2, with Target 1 (setting [1]) and in the experiment with Target 1 (setting [2]) were 1160 nM, 941 nM and 2910 nM, respectively.

With `CNC(=O)/C=C/c1cc(O)c(-c2ccc(N(C)[C@H]3C[C@]4(C)CCC[C@](C)(C3)N4)nn2)cc1F` [SMSM 70813, (2E)-3-[2-fluoro-5-hydroxy-4-(6-{methyl[(1R,3S,5S)-1,5-dimethyl-9-azabicyclo[3.3.1]nonan-3-yl]amino}pyridazin-3-yl)phenyl]-N-methylprop-2-enamide], the results for the IC50 with Target 2 and in the experiment with Target 1 were 162 nM and 99.1 nM, respectively. Also, the concentration giving a half-maximal response (EC50) stood at 126 nM in the experiment on Target 2, 41 nM in the experiment on Target 1 (setting [1]) and 310 nM in the experiment with Target 1 (setting [2]).

With `CNC(=O)/C=C/c1cc(O)c(-c2ccc(N(C3CC3)[C@H]3C[C@]4(C)CCC[C@](C)(C3)N4)nn2)cc1F` [SMSM 70826, (2E)-3-[4-(6-{cyclopropyl[(1R,3S,5S)-1,5-dimethyl-9-azabicyclo[3.3.1]nonan-3-yl]amino}pyridazin-3-yl)-2-fluoro-5-hydroxyphenyl]-N-methylprop-2-enamide], the IC50 in the experiment with Target 2 came out at 337 nM; in the experiment with Target 1, 177 nM. For the same compound, the EC50 came to 304 nM in the experiment on Target 2, 257 nM in the experiment on Target 1 (setting [1]) and 887 nM in the experiment on Target 1 (setting [2]).

Turning to `CN(c1ccc(-c2cc(F)c(-c3ccn(C)c(=O)c3)cc2O)nn1)[C@H]1C[C@]2(C)CCC[C@](C)(C1)N2` [SMSM 70815, 4-[2-fluoro-5-hydroxy-4-(6-{methyl[(1R,3S,5S)-1,5-dimethyl-9-azabicyclo[3.3.1]nonan-3-yl]amino}pyridazin-3-yl)phenyl]-1-methyl-1,2-dihydropyridin-2-one], the values for the IC50 with Target 2 and in the experiment with Target 1 were 116 nM and 105 nM, respectively. For the same compound, the EC50 was 238 nM in the experiment on Target 2, 59.8 nM in the experiment with Target 1 (setting [1]) and 423 nM in the experiment with Target 1 (setting [2]).

As to `COc1cc(-c2ccc(-c3ccc(N(C)[C@H]4C[C@]5(C)CCC[C@](C)(C4)N5)nn3)c(O)c2)cnn1` [SMSM 70820, 5-(6-methoxypyridazin-4-yl)-2-(6-{methyl[(1R,3S,5S)-1,5-dimethyl-9-azabicyclo[3.3.1]nonan-3-yl]amino}pyridazin-3-yl)phenol], the IC50 turned out to be 166 nM in the experiment with Target 2 and 142 nM in the experiment on Target 1. Further, the EC50 is 530 nM in the experiment on Target 2, 111 nM with Target 1 (setting [1]) and 627 nM in the experiment with Target 1 (setting [2]).

In the case of `COc1cc(-c2ccc(-c3ccc(N(C)[C@H]4C[C@]5(C)CC[C@](C)(C4)N5)nn3)c(O)c2)cnn1` [SMSM 70812, 2-(6-{[(1R,3S,5S)-1,5-dimethyl-8-azabicyclo[3.2.1]octan-3-yl](methyl)amino}pyridazin-3-yl)-5-(6-methoxypyridazin-4-yl)phenol], the values for the IC50 in the experiment on Target 2 and in the experiment on Target 1 were 169 nM and 178 nM, respectively. For the same compound, the EC50 is 355 nM in the experiment on Target 2, 174 nM in the experiment with Target 1 (setting [1]) and 754 nM in the experiment on Target 1 (setting [2]).

As for `CN(c1ccc(-c2ccc(-c3ccn(C)c(=O)c3)cc2O)nn1)[C@H]1C[C@]2(C)CCC[C@](C)(C1)N2` [SMSM 70814, 4-[3-hydroxy-4-(6-{methyl[(1R,3S,5S)-1,5-dimethyl-9-azabicyclo[3.3.1]nonan-3-yl]amino}pyridazin-3-yl)phenyl]-1-methyl-1,2-dihydropyridin-2-one], the IC50 in the experiment on Target 2 turned out to be 110 nM; in the experiment with Target 1 it was 102 nM. Besides, the figures for the concentration giving a half-maximal response (EC50) in the experiment with Target 1 (setting [1]) and with Target 1 (setting [2]) were 89.2 nM and 538 nM, respectively.

For the compound `CN(c1ccc(-c2cc(F)c(-c3cc(=O)n(C)cn3)cc2O)nn1)[C@H]1C[C@]2(C)CC[C@](C)(C1)N2` [SMSM 70816, 6-(4-(6-(((1R,3S,5S)-1,5-dimethyl-8-azabicyclo[3.2.1]octan-3-yl)(methyl)amino)pyridazin-3-yl)-2-fluoro-5-hydroxyphenyl)-3-methylpyrimidin-4(3H)-one], the IC50 with Target 2 was found to be 225 nM; with Target 1, 215 nM. For the same compound, the EC50 in the experiment with Target 2 is 634 nM; with Target 1 (setting [1]) it was 171 nM; with Target 1 (setting [2]) it was 737 nM.

On to `CN(c1ccc(-c2cc(F)c(-c3ccn(CF)c(=O)c3)cc2O)nn1)[C@H]1C[C@]2(C)CCC[C@](C)(C1)N2` [SMSM 70819, 4-[2-fluoro-5-hydroxy-4-(6-{methyl[(1R,3S,5S)-1,5-dimethyl-9-azabicyclo[3.3.1]nonan-3-yl]amino}pyridazin-3-yl)phenyl]-1-(fluoromethyl)-1,2-dihydropyridin-2-one], for which the IC50 was determined as 94.7 nM with Target 2 and 93.9 nM in the experiment on Target 1. Also, the EC50 in the experiment on Target 2 was 92.9 nM; with Target 1 (setting [1]) it was 88 nM; in the experiment with Target 1 (setting [2]), 293 nM.
